Measurements published in patent US5659038A, “5-vinyl-and 5-ethinyl-quinolone- and -naphthyridone-carboxylic acids” (Bayer Aktiengesellschaft, priority 1994, dated 1997).
Values after ≈ are worked out from the molar mass of the structure shown. Counter-ions that a name gives are not always drawn. Like-named read-outs stand apart in the source and are kept apart here.

Key:
Format in all cases: cell-based
[1] = tested on: Staph. Z433-4 LH; test: MIC, veterinary microorganisms; conditions: 20 h
Method: (§1) The minimum inhibitory concentrations (MICs) were determined in serial dilution tests using Iso-Sensitest Agar (Oxoid). For each test substance, a series of agar plates was prepared which contained concentrations of the active compound which decreased as a result of dilution to twice the volume each time. The agar plates were inoculated using a Multipoint Inoculator (Denley). For inoculation, overnight cultures of the pathogens were used which had previously been diluted to such a concentration that each inoculation point contained approximately 10^4 colony-forming particles. The inoculated agar plates were incubated at 37° C., and the microbial growth was determined after approximately 20 hours. The MIC value (μg/ml) indicates the lowest concentration of active compound at which no growth was discernible with the naked eye.
(§2) Table 3 lists MIC values of compounds according to the invention against microorganisms which aye specific to veterinary medicine. The comparison compound shown in this case is enrofloxacin (ENRO), which is a therapeutic used in veterinary medicine.

[2] = tested on: Staph. Z 318 Lh; test: MIC, veterinary microorganisms; conditions: 20 h
Method: as §1, §2

[3] = tested on: Staph. Ky 469 We; test: MIC, veterinary microorganisms; conditions: 20 h
Method: as §1, §2

[4] = tested on: E. coli G293 Lh; test: MIC, veterinary microorganisms; conditions: Escherichia coli, G293LH, 20 h
Method: as §1, §2

[5] = tested on: E. coli 21 Bui; test: MIC, veterinary microorganisms; conditions: Escherichia coli, 20 h
Method: as §1, §2

[6] = tested on: Enterobater aer.ICB 5240; test: MIC, serial agar dilution
Method: as §1

[7] = tested on: Enterococcus faecalis 27101; test: MIC, serial agar dilution
Method: as §1

[8] = tested on: E. coli Neumann; test: MIC, serial agar dilution; conditions: Escherichia coli
Method: as §1

[9] = tested on: Staphylococcus aureus ICB 25701; test: MIC, serial agar dilution
Method: as §1

[10] = tested on: Enterococcus faecalis 9790; test: MIC, serial agar dilution
Method: as §1

[11] = tested on: Enterobater cloaceae 2427; test: MIC, serial agar dilution
Method: as §1

[12] = tested on: Staphylococcus aureus 133; test: MIC, serial agar dilution
Method: as §1

[13] = tested on: Staphylococcus aureus ATTC 29213; test: MIC, serial agar dilution
Method: as §1

[14] = Enterobater aer.ICB 5240, Iso-Sensitest Agar, 37° C., approximately 20 hours, read-out: MIC
[15] = Enterococcus faecalis 27101, Iso-Sensitest Agar, 37° C., approximately 20 hours, read-out: MIC
[16] = E. coli Neumann, Iso-Sensitest Agar, 37° C., approximately 20 hours, read-out: MIC
[17] = ICB25701, Staphylococcus aureus ICB 25701, Iso-Sensitest Agar, 37° C., approximately 20 hours, read-out: MIC
[18] = Enterococcus faecalis 9790, Iso-Sensitest Agar, 37° C., approximately 20 hours, read-out: MIC
[19] = Enterobater cloaceae 2427, Iso-Sensitest Agar, 37° C., approximately 20 hours, read-out: MIC
[20] = Staphylococcus aureus 133, Iso-Sensitest Agar, 37° C., approximately 20 hours, read-out: MIC
[21] = ATTC29213, Staphylococcus aureus ATTC 29213, Iso-Sensitest Agar, 37° C., approximately 20 hours, read-out: MIC
[22] = Staphylococcus aureus, ICB25701, 20 h
[23] = Staphylococcus aureus, ATTC29213, 20 h

Row | Structure (SMILES) | MIC [1] [µg/mL] | MIC [2] [µg/mL] | MIC [3] [µg/mL] | MIC [4] [µg/mL] | MIC [5] [µg/mL] | MIC [6, 14] [µg/mL] | MIC [7, 15] [µg/mL] | MIC [8, 16] [µg/mL] | MIC [9, 17] [µg/mL] | MIC [10, 18] [µg/mL] | MIC [11, 19] [µg/mL] | MIC [12, 20] [µg/mL] | MIC [13, 21] [µg/mL] | MIC [9, 22] [µg/mL] | MIC ([6]; 20 h) [µg/mL] | also measured
1 | C=Cc1c(F)c(N2CC3CC=CC(N)C3C2)c(F)c2c1c(=O)c(C(=O)O)cn2C1CC1 (stereo not shown) [Compound 6, 7-(4-amino-1,3,3a,4,7,7a-hexahydro-isoindol-2-yl)-1-cyclopropyl-6,8-difluoro-1,4-dihydro-4-oxo-5-vinyl-3-quinolinecarboxylic acid] | 0.015 (≈ 0.0351 µM) | 0.06 (≈ 0.14 µM) | 0.015 (≈ 0.0351 µM) | 8 (≈ 18.7 µM) | 4 (≈ 9.36 µM) | 4 (≈ 9.36 µM) | 0.03 (≈ 0.0702 µM) | 0.015 (≈ 0.0351 µM) | 0.03 (≈ 0.0702 µM) | 0.03 (≈ 0.0702 µM) | 0.125 (≈ 0.292 µM) | ≤ 0.015 | ≤ 0.015 | – | – | –
2 | C=Cc1c(F)c(N2C[C@@H]3CCCN[C@@H]3C2)c(F)c2c1c(=O)c(C(=O)O)cn2C1CC1 (relative stereo) [Compound 2, 1-cyclopropyl-7-(cis-2,8-diazabicyclo[4.3.0]non-8-yl)-6,8-difluoro-1,4-dihydro-4-oxo-5-vinyl-3-quinolinecarboxylic acid] | – | – | – | – | – | 16 (≈ 38.5 µM) | 0.125 (≈ 0.301 µM) | 0.06 (≈ 0.144 µM) | – | 0.125 (≈ 0.301 µM) | 0.125 (≈ 0.301 µM) | 0.06 (≈ 0.144 µM) | 0.06 (≈ 0.144 µM) | 1 (≈ 2.41 µM) | – | –
3 | CCN1CCN(c2cc3c(cc2F)c(=O)c(C(=O)O)cn3C2CC2)CC1 [ENRO, enrofloxacin, reference compound] | 0.25 (≈ 0.696 µM) | 8 (≈ 22.3 µM) | 0.12 (≈ 0.334 µM) | 32 (≈ 89 µM) | 32 (≈ 89 µM) | – | – | – | – | – | – | – | – | – | – | –
4 | C=Cc1c(F)c(N2CC3CC=CC(NC)C3C2)c(F)c2c1c(=O)c(C(=O)O)cn2C1CC1 (stereo not shown) [Compound 7, 7-(4-methylamino-1,3,3a,4,7,7a-hexahydro-isoindol-2-yl)-1-cyclopropyl-6,8-difluoro-1,4-dihydro-4-oxo-5-vinyl-3-quinolinecarboxylic acid] | – | – | – | – | – | – | 0.03 (≈ 0.068 µM) | 0.03 (≈ 0.068 µM) | 0.03 (≈ 0.068 µM) | 0.03 (≈ 0.068 µM) | 0.125 (≈ 0.283 µM) | ≤ 0.015 | ≤ 0.015 | – | 8 (≈ 18.1 µM) | –
5 | C=Cc1c(F)c(N2CCN(C)CC2)c(F)c2c1c(=O)c(C(=O)O)cn2C1CC1 [Compound 1, 1-cyclopropyl-6,8-difluoro-1,4-dihydro-4-oxo-7-(4-methyl-1-piperazinyl)-4-oxo-5-vinyl-3-quinolinecarboxylic acid] | – | – | – | – | – | – | – | 0.06 (≈ 0.154 µM) | 64 (≈ 164 µM) | – | – | – | – | – | 32 (≈ 82.2 µM) | MIC ([7]; Enterococcus faecalis, 27101, 20 h): 1 µg/mL (≈ 2.57 µM); MIC ([10]; Enterococcus faecalis, 9790, 20 h): 1 µg/mL (≈ 2.57 µM); MIC ([11]; 20 h): 0.25 µg/mL (≈ 0.642 µM); MIC ([12]; Staphylococcus aureus, 133, 20 h): 0.25 µg/mL (≈ 0.642 µM); MIC [13, 23]: 0.25 µg/mL (≈ 0.642 µM)
6 | CCc1c(F)c(N2CCN(C)CC2)c(F)c2c1c(=O)c(C(=O)O)cn2C1CC1 [Compound K, 1-cyclopropyl-5-ethyl-6,8-difluoro-1,4-dihydro-7-(4-methyl-1-piperazinyl)-4-oxo-3-quinolinecarboxylic acid, reference compound] | – | – | – | – | – | ≤ 128 | 64 (≈ 164 µM) | – | 64 (≈ 164 µM) | 64 (≈ 164 µM) | – | 16 (≈ 40.9 µM) | – | – | – | MIC ([8]; 20 h): 0.25 µg/mL (≈ 0.639 µM); MIC ([11]; 20 h): 1 µg/mL (≈ 2.55 µM); MIC [13, 23]: 8 µg/mL (≈ 20.4 µM)
7 | C=Cc1c(F)c(N2CC3CCOC3(CN)C2)c(F)c2c1c(=O)c(C(=O)O)cn2C1CC1 (stereo not shown) [Compound 11, 7-(6a-aminomethylhexahydro-furo[2,3-c]pyrrol-5-yl)-1-cyclopropyl-6,8-difluoro-1,4-dihydro-4-oxo-5-vinyl-3-quinolinecarboxyllc acid hydrochloride] | – | – | – | – | – | – | 0.125 | 0.03 | – | 0.125 | 0.125 | 0.015 | 0.015 | 0.5 | 32 | –
8 | C=Cc1c(F)c(N2CCC(N)C2)c(F)c2c1c(=O)c(C(=O)O)cn2C1CC1.Cl (stereo not shown) [Compound 5, 7-(3-aminopyrrolidin-1-yl)-1-cyclopropyl-6,8-difluoro-1,4-dihydro-4-oxo-5-vinyl-3-quinolinecarboxylic acid hydrochloride] | 0.03 | 2 | 0.03 | 32 | 16 | 4 | 0.06 | ≤ 0.015 | 2 | 0.125 | ≤ 0.015 | 0.03 | ≤ 0.015 | – | – | –
9 | C=Cc1c(F)c(N2C[C@@H]3CCCN[C@@H]3C2)c(F)c2c1c(=O)c(C(=O)O)cn2C1CC1 [Compound 3, 1-cyclopropyl-7-(S,S-2,8-diazabicyclo[4.3.0]non-8-yl)-6,8-difluoro-1,4-dihydro-4-oxo-5-vinyl-3-quinolinecarboxylic acid] | – | – | – | – | – | – | 0.125 (≈ 0.301 µM) | ≤ 0.015 | – | 0.125 (≈ 0.301 µM) | 0.06 (≈ 0.144 µM) | 0.03 (≈ 0.0722 µM) | 0.03 (≈ 0.0722 µM) | 0.5 (≈ 1.2 µM) | 8 (≈ 19.3 µM) | –
